{"source": "patent US20250319019A1", "about": "“BUCCOMUCOADHESIVE PATCH-BASED DRUG DELIVERY SYSTEM FOR TACROLIMUS” (priority 2022, published 2025)", "key": {"[1]": {"experiment": "In-vivo pharmacokinetic evaluation, single dose", "set-up": "species or system New Zealand White rabbits", "details": "New Zealand White, whole blood", "experimental": "The study was performed in New Zealand White rabbits as per the CPCSEA guidance. Overnight fasted animals were anaesthetised with Ketamine (30-40 mg/kg) and Xylazine (10 mg/kg) and 1 mg BAPTac patch was administered on the buccal surface of the oral cavity. The control group was administered 1 mg tacrolimus in PBS and 30% Ethanol. 0.5-0.75 ml of blood was taken from each rabbit via the marginal ear vein using 23 gauge needles through a butterfly cannula. The blood samples were collected before initiation of the treatment and after the administration of oral Tacrolimus or Tacrolimus-SLN-loaded buccal patch at time intervals of 15 min, 30 min, 1 h, 1.5 h, 2 h, 4 h, 6 h, 8 h, 12 h and 24 hours for the single dose PK study. Blood samples were collected in EDTA tubes, aliquoted and stored in amber-coloured tubes at −80° C. until quantification by LC-MS/MS."}, "[2]": {"details": "poor and variable, intestinal absorption; background statement; cited from earlier work"}}}
{"smiles": "C=CC[C@@H]1/C=C(\\C)C[C@H](C)C[C@H](OC)[C@H]2O[C@@](O)(C(=O)C(=O)N3CCCC[C@H]3C(=O)O[C@H](/C(C)=C/[C@@H]3CC[C@@H](O)[C@H](OC)C3)[C@H](C)[C@@H](O)CC1=O)[C@H](C)C[C@@H]2OC", "note": "(relative stereo) [Tacrolimus, [3S[3R*[E(1S*,3S*,4S*)],4S*,5R*,8S*,9E,12R*,14R*,15S*,16R*,18S*,19S*, 26aR*]]5,6,8,11,12,13,14,15,16,17,18,19,24,25,26,26a-hexadecahydro-5,19-dihydroxy-3-[2-(4-hydroxy-3-methoxycyclohexyl)-1-methylethenyl]-14,16-dimethoxy-4,10,12,18-tetramethyl-8-(2-propenyl)-15,19-epoxy-3H-pyrido[2,1-c][1,4]oxaazacyclotricosine-1,7,20,21(4H,23H)-tetrone, monohydrate]", "values": [{"measurement": "concentration at 0.25 h", "setting": "[1]; 1 mg, heading: Average Tac conc., rabbit blood, 0.25 (15 mins) after single 1 mg dose (oral or buccal patch), LC-MS/MS", "value": 3.6, "unit": "ng/mL"}, {"measurement": "concentration at 0.5 h", "setting": "[1]; 1 mg, heading: Average Tac conc., rabbit blood, 0.5 (30 mins) after single 1 mg dose (oral or buccal patch)", "value": 12.3, "unit": "ng/mL"}, {"measurement": "concentration at 1 h", "setting": "[1]; 1 mg, heading: Average Tac conc., rabbit blood, 1.0 (60 mins) after single 1 mg dose (oral or buccal patch)", "value": 17.2, "unit": "ng/mL"}, {"measurement": "concentration at 1.5 h", "setting": "[1]; 1 mg, heading: Average Tac conc., rabbit blood, 1.5 (90 mins) after single 1 mg dose (oral or buccal patch)", "value": 46.9, "unit": "ng/mL"}, {"measurement": "concentration at 2 h", "setting": "[1]; 1 mg, heading: Average Tac conc., rabbit blood, 2.0 (120 mins) after single 1 mg dose (oral or buccal patch)", "value": 31.3, "unit": "ng/mL"}, {"measurement": "concentration at 4 h", "setting": "[1]; 1 mg, heading: Average Tac conc., rabbit blood, 4.0 (240 mins) after single 1 mg dose (oral or buccal patch)", "value": 14.5, "unit": "ng/mL"}, {"measurement": "concentration at 6 h", "setting": "[1]; 1 mg, heading: Average Tac conc., rabbit blood, 6.0 (480 mins) after single 1 mg dose (oral or buccal patch)", "value": 12.3, "unit": "ng/mL"}, {"measurement": "concentration at 8 h", "setting": "[1]; 1 mg, heading: Average Tac conc., rabbit blood, 8.0 (640 mins) after single 1 mg dose (oral or buccal patch)", "value": 11.8, "unit": "ng/mL"}, {"measurement": "concentration at 12 h", "setting": "[1]; 1 mg, heading: Average Tac conc., rabbit blood, 12.0 (720 mins) after single 1 mg dose (oral or buccal patch)", "value": 7.9, "unit": "ng/mL"}, {"measurement": "concentration at 24 h", "setting": "[1]; 1 mg, heading: Average Tac conc., rabbit blood, 24.0 (1440 mins) after single 1 mg dose (oral or buccal patch)", "value": 2.4, "unit": "ng/mL"}, {"measurement": "half-life", "setting": "[1]; rabbit, single 1 mg dose (oral or buccal patch), read-out: Elimination t1/2 (converted)", "value": "2.73 ± 2.9", "unit": "h"}, {"measurement": "AUC(0-t)", "setting": "[1]; rabbit, single 1 mg dose (oral or buccal patch), read-out: Mean AUC0-24", "value": "250 ± 78.2", "unit": "ng·h/mL"}, {"measurement": "bioavailability (average)", "setting": "[2]", "value": 25, "unit": "%"}]}
